The values that follow come from US6274557A, “Inhibition of nitric oxide synthase by amino acids and dipeptides” (Northwestern University, priority 1999, dated 2001).

The test system of assay [1] is nitric oxide synthases (nNOS, iNOS, eNOS). The following applies: literature, cited from earlier work; for isoform selectivity factor: methyl: eNOS and nNOS over iNOS, ethyl: iNOS over nNOS and eNOS.
Assay [2] deals with neuronal nitric oxide synthase (nNOS) from bovine brain (Bos taurus, UniProt A0A3Q1M6M2). The assay is described as follows: Hemoglobin capture assay of nitric oxide formation, nNOS. The following applies: for nNOS/iNOS selectivity / nNOS/eNOS selectivity: Table 2 dipeptides; for nNOS/iNOS selectivity: in favor of nNOS over iNOS; for nNOS/eNOS selectivity: nNOS over eNOS; for time-dependent inhibition of any of the isoforms: nNOS, iNOS and eNOS.
Chain of neuronal nitric oxide synthase (nNOS) from bovine brain (A0A3Q1M6M2 entry or part of it): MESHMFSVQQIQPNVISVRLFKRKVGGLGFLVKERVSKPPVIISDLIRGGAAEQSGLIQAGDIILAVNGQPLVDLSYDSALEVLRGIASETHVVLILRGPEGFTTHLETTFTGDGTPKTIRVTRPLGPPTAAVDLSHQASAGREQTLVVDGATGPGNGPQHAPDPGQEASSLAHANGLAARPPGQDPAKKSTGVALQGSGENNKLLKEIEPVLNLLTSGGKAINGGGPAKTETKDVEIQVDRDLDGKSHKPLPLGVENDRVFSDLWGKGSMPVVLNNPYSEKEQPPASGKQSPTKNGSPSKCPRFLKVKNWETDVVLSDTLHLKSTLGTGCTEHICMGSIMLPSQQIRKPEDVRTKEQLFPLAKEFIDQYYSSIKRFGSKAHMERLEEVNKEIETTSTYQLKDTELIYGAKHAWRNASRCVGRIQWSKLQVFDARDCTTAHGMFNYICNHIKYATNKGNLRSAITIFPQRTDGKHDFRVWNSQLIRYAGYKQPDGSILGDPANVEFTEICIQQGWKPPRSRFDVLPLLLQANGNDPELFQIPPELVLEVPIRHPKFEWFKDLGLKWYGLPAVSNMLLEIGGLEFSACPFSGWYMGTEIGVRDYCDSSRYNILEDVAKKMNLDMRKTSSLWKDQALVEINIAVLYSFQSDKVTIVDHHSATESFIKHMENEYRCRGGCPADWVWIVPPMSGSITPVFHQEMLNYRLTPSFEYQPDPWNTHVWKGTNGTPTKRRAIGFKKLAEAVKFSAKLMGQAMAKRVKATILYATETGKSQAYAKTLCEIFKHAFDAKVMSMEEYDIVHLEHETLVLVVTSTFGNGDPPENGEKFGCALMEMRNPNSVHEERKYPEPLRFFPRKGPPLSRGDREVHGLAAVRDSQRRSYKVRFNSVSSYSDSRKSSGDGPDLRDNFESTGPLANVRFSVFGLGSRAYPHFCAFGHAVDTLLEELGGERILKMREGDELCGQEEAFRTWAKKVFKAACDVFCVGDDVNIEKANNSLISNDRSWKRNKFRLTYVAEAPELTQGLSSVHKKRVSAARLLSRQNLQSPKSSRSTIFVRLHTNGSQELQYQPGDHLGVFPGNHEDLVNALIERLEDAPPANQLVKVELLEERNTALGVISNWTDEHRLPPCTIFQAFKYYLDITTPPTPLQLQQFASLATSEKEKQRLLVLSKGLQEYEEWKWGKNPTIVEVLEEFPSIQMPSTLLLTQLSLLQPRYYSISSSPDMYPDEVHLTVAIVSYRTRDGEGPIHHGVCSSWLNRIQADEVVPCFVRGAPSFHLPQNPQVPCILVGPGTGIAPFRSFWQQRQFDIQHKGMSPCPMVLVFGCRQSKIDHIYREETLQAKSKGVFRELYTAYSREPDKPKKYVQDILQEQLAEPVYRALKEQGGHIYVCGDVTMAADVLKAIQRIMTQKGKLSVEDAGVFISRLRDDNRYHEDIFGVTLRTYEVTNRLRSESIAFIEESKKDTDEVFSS
Experimental: (§1) Nitric oxide formation was measured by using the hemoglobin capture assay. […] The production of nitric oxide by eNOS was measured as described. […] All assays were in a final volume of 600 μL and were initiated with enzyme.
(§2) The reversible inhibition of NOS by the dipeptide analogs was studied under initial rate conditions with the hemoglobin assay as described above. […] With various L-arginine and inhibitor concentrations.

Assay [3] concerns the target T1, recombinant bovine endothelial nitric oxide synthase (eNOS) (Bos taurus, UniProt P29473).
T1 construct: made in house; host or cells: E. coli
The assay can be described thus: Hemoglobin capture assay of nitric oxide formation, eNOS. Type of assay: biochemical. The note with it: for selectivity of eNOS over iNOS: Table 2 dipeptides.
Experimental: as §1, §2

Assay [4] deals with recombinant murine macrophage nitric oxide synthase (iNOS) (Mus musculus, UniProt P29477). The assay is described as follows: Hemoglobin capture assay of nitric oxide formation, iNOS. The following applies: for iNOS/eNOS selectivity: Table 2 dipeptides.
Experimental: as §1, §2
The mark [5] stands for this setting: read-out: Ki nNOS, Table 2, Dixon plots.
[6] abbreviates: read-out: Ki iNOS, Table 2, Dixon plots, ^a = uncompetitive inhibition.
[7] abbreviates: N-substituted L-arginines, ratio of the inverse of the Ki values (IC50 for methyl, ethyl).

Read-outs that look alike come from different tables or passages of the source. Peptide text beside a SMILES is read from it.

Take `CC1CCN=C(N)S1` (stereo not drawn) [2-Amino-5,6-dihydro-6-methyl-4H-1,3-thiazine]: in assay [1], the “selectivity in favor of iNOS” value was 10-40 fold.

Take `N=C(N)NN` [Aminoguanidine]: in assay [1], the “selectivity for iNOS over eNOS” value is recorded as 500 fold and the “selectivity for iNOS over nNOS” value is reported as 50 fold.

`CC(=N)NCCCC[C@H](N)C(=O)O` [L-N^6-(1-Iminoethyl)lysine]: in assay [1], the “selectivity for iNOS over eNOS” value is given as 30 fold and the “selectivity for iNOS over nNOS” value is recorded as 13 fold.

For the molecule `NC(=NCCC[C@H](N)C(=O)O)N[N+](=O)[O-]` [N-nitro-L-arginine, N^ω --Nitro-L-arginine, reference compound], the Ki in assay [2] (read-out: KI (time-dependent inhibition), with nNOS) worked out at 9.3 µM. Further, the kinact in assay [2] (with nNOS) came to 0.132 min⁻¹. For the same molecule, in assay [1], the “selectivity for nNOS over iNOS” value was “about 300 fold”.

Take `CSC(N)=NCCC[C@H](N)C(=O)O` [S-Methyl-L-thiocitrulline]: the “selectivity for nNOS than eNOS” value in assay [1] is given as 10 fold.

For `CCSC(N)=NCCC[C@H](N)C(=O)O` [S-ethyl-L-thiocitrulline], the “selectivity for nNOS than eNOS” value in assay [1] is listed as 50 fold.

Consider `CCSC(=N)N` [S-ethylisothiourea], for which, in assay [1], the “selectivity in favor of iNOS” value is given as 10-40 fold.

For the molecule `COC(=O)[C@@H](CCCNC(=N)N[N+](=O)[O-])NC(=O)[C@@H](N)Cc1ccccc1` [compound 10, L-Phe-D-Arg^NO2 -OMe] (HELM PEPTIDE1{F.[N=C(NCCC[C@@H](N[*:1])C(=O)[*:2])N[N+](=O)[O-]].[CO[*:1]]}$$$$V2.0), the Ki in assay [3] (Table 2, Dixon plots) is 150 µM; in assay [2] (setting [5]), 90 µM; in assay [4] (setting [6]) it was 7500 µM. This molecule also came in with a nNOS/iNOS selectivity in assay [2] of 83.3. In addition, in assay [2], the nNOS/eNOS selectivity is reported as 1.7. The iNOS/eNOS selectivity in assay [4] is on record as 0.02.

As for `COC(=O)[C@H](CCCNC(=N)N[N+](=O)[O-])NC(=O)[C@H](N)Cc1ccccc1` [compound 11, D-Phe-L-Arg^NO2 -OMe] (HELM PEPTIDE1{[dF].[N=C(NCCC[C@H](N[*:1])C(=O)[*:2])N[N+](=O)[O-]].[CO[*:1]]}$$$$V2.0), the Ki in assay [3] (Table 2, Dixon plots) amounted to 8500 µM; in assay [2] (setting [5]) it was 400 µM; in assay [4] (setting [6]), 1200 µM. In addition, the nNOS/iNOS selectivity in assay [2] is listed as 3. This molecule gave a nNOS/eNOS selectivity in assay [2] of 21.3. In assay [4], the iNOS/eNOS selectivity is 7.1.

On to `COC(=O)[C@@H](CCCN=C(N)N[N+](=O)[O-])NC(=O)[C@H](N)Cc1ccccc1` [compound 12, D-Phe-D-Arg^NO2 -OMe] (HELM PEPTIDE1{[dF].[N=C(NCCC[C@@H](N[*:1])C(=O)[*:2])N[N+](=O)[O-]].[CO[*:1]]}$$$$V2.0), for which the Ki in assay [3] (Table 2, Dixon plots) amounted to 5 µM; in assay [2] (setting [5]), 2 µM; in assay [4] (setting [6]), 3600 µM. Besides, the “selectivity of eNOS over iNOS” value in assay [3] is given as 714 fold. The molecule also gave a nNOS/eNOS selectivity in assay [2] of 2.5. Further, the “time-dependent inhibition of any of the isoforms” value in assay [2] is recorded as “None”. Moreover, in assay [4], the iNOS/eNOS selectivity amounted to 0.0014.

Consider `N=C(NCCC[C@@H](NC(=O)[C@H](N)Cc1ccccc1)C(=O)O)N[N+](=O)[O-]` [compound 13, D-Phe-D-Arg^NO2] (HELM PEPTIDE1{[dF].[N=C(NCCC[C@@H](N[*:1])C(=O)O)N[N+](=O)[O-]]}$$$$V2.0), for which the Ki in assay [3] (Table 2, Dixon plots) is 90 µM; in assay [2] (setting [5]), 17 µM; in assay [4] (setting [6]) it was 13600 µM. The “selectivity of eNOS over iNOS” value in assay [3] is reported as 152 fold. The nNOS/iNOS selectivity in assay [2] is 800. Moreover, the nNOS/eNOS selectivity in assay [2] worked out at 5.3. In addition, the “time-dependent inhibition of any of the isoforms” value in assay [2] is given as “None”. Moreover, in assay [4], the iNOS/eNOS selectivity was 0.0066.

With `CCNC(=N)NCCC[C@H](N)C(=O)O` [ethyl, N^ω -ethyl-L-arginine, reference compound], the IC50 in assay [3] was 9.5 µM; in assay [2], 16 µM; in assay [4], 6.1 µM. In assay [2] (setting [7]), the “Selectivity nNOS/eNOS” value was 0.6. In addition, the “Selectivity nNOS/iNOS” value in assay [2] (setting [7]) turned out to be 0.4. Further, the isoform selectivity factor is ~2 in assay [1] (listed as N^ω --ethyl-L-arginine) and “about 2” in assay [1] (listed as N^ω -ethyl-L-arginine).

Take `CCCNC(=N)NCCC[C@H](N)C(=O)O` [propyl, N^ω -Propyl-L-arginine]: in assay [3] (Cornish-Bowden replots), the “type of reversible inhibition of eNOS” value was “competitive inhibitor”. The Ki in assay [3] (Table 1) was determined as 8.5 µM; in assay [2], 0.057 µM; in assay [4], 180 µM. Besides, the “type of reversible inhibition of nNOS” value in assay [2] is given as “competitive inhibitor”. Further, the “type of reversible inhibition of iNOS” value in assay [4] (Cornish-Bowden replots) is recorded as “competitive inhibitor”.

For orientation: kinact means the rate constant of inactivation at saturating inhibitor. Usually IC50 stands for the concentration that gives 50% inhibition.
